This note sets out measurements from patent publication US9834521B2, “Choline kinase inhibitors” (ARIAD Pharmaceuticals, Inc., priority 2013, dated 2017).

For experiment [1], the target named is T1, truncated form of human Choline kinase α1 that includes residues 75-457 (Homo sapiens, UniProt P35790).
T1 construct: made in house
Briefly: Kinase Assay, coupled (ATP regeneration) LDH/PK assay, NADH absorbance. It counts as biochemical. Here is the method:
Absorbance of NADH (340 nm) was measured over 30 min using a SpectraMax M5 (Molecular Devices). Initial reaction velocity (ΔA340/Δt) was calculated and plotted as a function of inhibitor concentration in a 2-fold dilution series. IC50 values were obtained by fitting the relative velocities to a dose-response model.

A further experiment addresses T2, ChoKα protein (Homo sapiens, UniProt P35790).
T2 construct: made in house
As to the kind of experiment: Binding affinity by surface plasmon resonance (SensiQ Pioneer, FastStep). Here is the method: KD may be measured using surface plasmon resonance (BIAcore®) technology, see, e.g., Panayotou et al, Mol. Cell. […] ChoKα protein was immobilized by standard amine coupling methods on a COOH5 sensor chip installed in a SensiQ Pioneer system. Sensograms were measured using the FastStep™ screen method with an upper concentration of 500 nM. Kinetics and affinity were obtained from fits using a 1:1 binding model.
A general note: In SPR one partner is held on a chip, and binding of the other changes the refractive index at the surface.

Where [2] appears, read: Examples not designated with an asterisk, footnote prints version 1 of the Kinase Assay, read-out: IC50.
[3] abbreviates: SPR, 1:1 binding model, upper concentration 500 nM, read-out: Kd.

Where two headings read alike, the source gives them in different places.

As a reminder, the IC50 is the concentration at which inhibition is half-maximal. What is called Kd is a measure of binding affinity in units of concentration.

T1 sequence (P35790 75-457): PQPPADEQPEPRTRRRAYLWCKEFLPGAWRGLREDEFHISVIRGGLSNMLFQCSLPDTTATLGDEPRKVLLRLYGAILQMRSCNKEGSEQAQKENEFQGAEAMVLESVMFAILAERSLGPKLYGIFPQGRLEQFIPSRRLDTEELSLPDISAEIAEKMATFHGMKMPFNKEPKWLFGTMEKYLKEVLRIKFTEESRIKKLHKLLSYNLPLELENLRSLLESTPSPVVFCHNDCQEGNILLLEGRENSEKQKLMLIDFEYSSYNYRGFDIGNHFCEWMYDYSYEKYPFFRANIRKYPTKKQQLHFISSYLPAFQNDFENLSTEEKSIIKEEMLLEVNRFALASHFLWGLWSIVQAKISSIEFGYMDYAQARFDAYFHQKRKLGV
T2 sequence (P35790 75-457): as above

Turning to `COc1ccc(-c2ccc(CN3CCCN(C)CC3)cc2)cc1` [Example 128, 1-((4′-methoxy-[1,1′-biphenyl]-4-yl)methyl)-4-methyl-1,4-diazepane], in experiment [1], the IC50 is below 200 nM. On ChoKα protein, this compound returned a Kd below 60000 nM.
For `COC(=O)c1ccc(-c2ccc(CN3CCCN(C)CC3)cc2)cc1` [Example 158, methyl 4′-((4-methyl-1,4-diazepan-1-yl)methyl)-[1,1′-biphenyl]-4-carboxylate] the same measures were below 200 nM and below 60000 nM.
Consider `CN1CCCN(Cc2ccc(-c3ccc(CN(C)CCO)cc3)c(C#N)c2)CC1` [Example 8, 4′-(((2-hydroxyethyl)(methyl)amino)methyl)-4-((4-methyl-1,4-diazepan-1-yl)methyl)-[1,1′-biphenyl]-2-carbonitrile], for which, in experiment [1] (setting [2]), the IC50 is below 100 nM. In addition, the Kd at ChoKα protein (setting [3]) was below 50 nM.
For `CN1CCCN(Cc2ccc(-c3ccc(CC#N)cc3)c(C#N)c2)CC1` [Example 93, 4′-(cyanomethyl)-4-((4-methyl-1,4-diazepan-1-yl)methyl)-[1,1′-biphenyl]-2-carbonitrile] the same measures were below 200 nM and below 60000 nM.
`CN1CCCN(Cc2ccc(-c3ccc(C(=O)N4CCCN(C)CC4)cc3-c3ccc(CN4CCOCC4)cc3)c(C#N)c2)CC1` [Example 80, 4-((4-methyl-1,4-diazepan-1-yl)methyl)-4′-(4-methyl-1,4-diazepane-1-carbonyl)-4″-(morpholinomethyl)-[1,1′:2′,1″-terphenyl]-2-carbonitrile]: the IC50 in experiment [1] (setting [2]) is below 100 nM. On ChoKα protein (setting [3]), the Kd is below 50 nM.
For `CN1CCCN(Cc2ccc(-c3ccc(C(=O)NN)cc3)c(C#N)c2)CC1` [Example 91, 2′-cyano-4′-((4-methyl-1,4-diazepan-1-yl)methyl)-[1,1′-biphenyl]-4-carbohydrazide] the same measures were below 200 nM and below 200 nM.
On the same counts, the results for `CN1CCCN(Cc2ccc(-c3ccc(S(=O)(=O)NCCO)cc3)c(C#N)c2)CC1` [Example 85, 2′-cyano-N-(2-hydroxyethyl)-4′-((4-methyl-1,4-diazepan-1-yl)methyl)-[1,1′-biphenyl]-4-sulfonamide] are below 100 nM and below 100 nM.
Consider `CN1CCCN(Cc2ccc(-c3ccc(CN4CCN(C)CC4)cc3)c(C#N)c2)CC1` [Example 11, 4-((4-methyl-1,4-diazepan-1-yl)methyl)-4′-((4-methylpiperazin-1-yl)methyl)-[1,1′-biphenyl]-2-carbonitrile], for which, in experiment [1] (setting [2]), the IC50 was below 200 nM. Moreover, the Kd on ChoKα protein (setting [3]) is below 200 nM.
With `CN1CCCN(Cc2ccc(-c3ccc(CN4CCCN(C)CC4)cc3[N+](=O)[O-])cc2)CC1` [Example 57, 4,4′-((2-nitro-[1,1′-biphenyl]-4,4′-diyl)bis(methylene))bis(1-methyl-1,4-diazepane)], in experiment [1] (setting [2]), the 50% inhibitory concentration (IC50) is below 100 nM. Further, on ChoKα protein (setting [3]), the Kd was below 100 nM.
For the compound `CN1CCCN(Cc2ccc(-c3ccc(C(=O)N4CCCN(C)CC4)cc3-c3ccncc3)c(C#N)c2)CC1` [Example 72, 4-((4-methyl-1,4-diazepan-1-yl)methyl)-4′-(4-methyl-1,4-diazepane-1-carbonyl)-2′-(pyridin-4-yl)-[1,1′-biphenyl]-2-carbonitrile], the IC50 in experiment [1] (setting [2]) is below 200 nM. The Kd at ChoKα protein (setting [3]) was below 200 nM.
For `CN(C)CCCNC(=O)c1ccc(-c2ccc(CN3CCCN(C)CC3)cc2C#N)cc1` [Example 30, 2′-cyano-N-(3-(dimethylamino)propyl)-4′-((4-methyl-1,4-diazepan-1-yl)methyl)-[1,1′-biphenyl]-4-carboxamide], the IC50 in experiment [1] (setting [2]) is below 100 nM. Moreover, the Kd at ChoKα protein (setting [3]) was below 50 nM.
On the same counts, the results for `CN1CCCN(Cc2ccc(-c3ccc(C(=O)N4CCCN(C)CC4)cc3-c3ccc(O)cc3)c(C#N)c2)CC1` [Example 69, 4″-hydroxy-4-((4-methyl-1,4-diazepan-1-yl)methyl)-4′-(4-methyl-1,4-diazepane-1-carbonyl)-[1,1′:2′,1″-terphenyl]-2-carbonitrile] are below 100 nM and below 50 nM.
For the compound `CN1CCCN(Cc2ccc(CNc3ccc(N4CCN(C)CC4)cc3)cc2)CC1` [Example 153, N-(4-((4-methyl-1,4-diazepan-1-yl)methyl)benzyl)-4-(4-methylpiperazin-1-yl)aniline], the IC50 in experiment [1] (Examples designated with an asterisk (*): version 1 of the Kinase Assay, 200 nM enzyme, read-out: IC50) was below 200 nM. For the same compound, the dissociation constant Kd on ChoKα protein (setting [3]) is below 60000 nM.
Consider `CN1CCCN(Cc2ccc(-c3ccc(C(=O)N4CCCN(C)CC4)cc3N)c(C#N)c2)CC1` [Example 64, 2′-amino-4-((4-methyl-1,4-diazepan-1-yl)methyl)-4′-(4-methyl-1,4-diazepane-1-carbonyl)-[1,1-biphenyl]-2-carbonitrile], for which the IC50 in experiment [1] (setting [2]) was below 200 nM. The Kd at ChoKα protein (setting [3]) is below 60000 nM.
For `CN1CCCN(Cc2ccc(-c3ccc(CN)cc3)c(C#N)c2)CC1` [Example 16, 4′-(aminomethyl)-4-((4-methyl-1,4-diazepan-1-yl)methyl)-[1,1′-biphenyl]-2-carbonitrile] the same measures were below 200 nM and below 200 nM.
Take `CN1CCCN(Cc2ccc(-c3ccc(C(=O)N4CCCN(C)CC4)cc3-c3cc(F)cc(F)c3)c(C#N)c2)CC1` [Example 78, 3″,5″-difluoro-4-((4-methyl-1,4-diazepan-1-yl)methyl)-4′-(4-methyl-1,4-diazepane-1-carbonyl)-[1,1′:2′,1″-terphenyl]-2-carbonitrile]: the IC50 in experiment [1] (setting [2]) was below 100 nM. Besides, on ChoKα protein (setting [3]), the Kd is below 50 nM.
For `CN1CCCN(Cc2ccc(-c3ccc(S(C)(=O)=O)cc3)c(C#N)c2)CC1` [Example 94, 4-((4-methyl-1,4-diazepan-1-yl)methyl)-4′-(methylsulfonyl)-[1,1′-biphenyl]-2-carbonitrile] the same measures were below 200 nM and below 200 nM.
As to `CN1CCCN(Cc2ccc(-c3ccc(CN4CCC(O)C4)cc3)c(C#N)c2)CC1` (centres unmarked) [Example 2, 4′-((3-hydroxypyrrolidin-1-yl)methyl)-4-((4-methyl-1,4-diazepan-1-yl)methyl)-[1,1′-biphenyl]-2-carbonitrile], the IC50 in experiment [1] (setting [2]) is below 100 nM. At ChoKα protein (setting [3]), the Kd was below 50 nM.
On the same counts, the results for `COc1ccc(-c2cc(C(=O)N3CCCN(C)CC3)ccc2-c2ccc(CN3CCCN(C)CC3)cc2C#N)cc1OC` [Example 81, 3″,4″-dimethoxy-4-((4-methyl-1,4-diazepan-1-yl)methyl)-4′-(4-methyl-1,4-diazepane-1-carbonyl)-[1,1′1:2′,1″-terphenyl]-2-carbonitrile] are below 100 nM and below 50 nM.
For `CCN(CC)C(=O)c1ccc(-c2ccc(CN3CCCN(C)CC3)cc2C#N)cc1` [Example 27, 2′-cyano-N,N-diethyl-4′-((4-methyl-1,4-diazepan-1-yl)methyl)-[1,1′-biphenyl]-4-carboxamide] the same measures were below 200 nM and below 200 nM.
On the same counts, the results for `CN1CCCN(Cc2ccc(-c3ccc(CN4CCC(CO)C4)cc3)c(C#N)c2)CC1` (centres unmarked) [Example 5, 4′-((3-(hydroxymethyl)pyrrolidin-1-yl)methyl)-4-((4-methyl-1,4-diazepan-1-yl)methyl)-[1,1′-biphenyl]-2-carbonitrile] are below 200 nM and below 200 nM.
For the compound `CCOc1ccc(-c2cc(C(=O)N3CCCN(C)CC3)ccc2-c2ccc(CN3CCCN(C)CC3)cc2C#N)cc1` [Example 79, 4″-ethoxy-4-((4-methyl-1,4-diazepan-1-yl)methyl)-4′-(4-methyl-1,4-diazepane-1-carbonyl)-[1,1′1:2′,1″-terphenyl]-2-carbonitrile], the IC50 in experiment [1] (setting [2]) is below 100 nM. The Kd on ChoKα protein (setting [3]) is below 50 nM.
